For experiment [1], the system named is P388 mouse leukemia cells. Nature of the experiment: Activity against tumor cell growth (P388, MTT, 72 h). It is filed as cell-based. To be noted: read-out: IC50 (50% growth inhibition concentration). The procedure: Using a culture medium RPMI1640 supplemented with 10% inactivated bovine fetal serum, 2 mM glutamine, 100 μ/ml kanamycin sulfate, and 5 μM 2-hydroxyethyldisulfide (This culture medium is hereinafter referred to simply as "culture medium"), P388 mouse leukemia cells were diluted to a concentration of 1.5×10^5 cells/ml in the culture medium, and were placed in each well of 96-well multiplate in 60 μl portions. Separately, the test compound was dissolved in dimethylsulfoxide and was adequately diluted with the culture medium. The diluted solution containing test compound was added to the wells of the above plate respectively in 60 μl portions. Then the cells were incubated in a CO2 -incubator (5% CO2, 37° C.) for 72 hours.
The surviving cell numbers were measured according to the Mosmann's method (J. Immunol. Meth., 65 55-63, 1983) as follows. A 2.5 mg/ml solution of MTT (3-[4,5-dimethylthiazol-2-yl]-2,5-diphenyltetrazolium bromide) in Dulbecco's phosphate buffer solution (PBS) was prepared and added to each of the wells by 20 μl. The cells were further incubated for 3 hours. A 150 μl portion of 0.04N hydrochloric acid-isopropanol solution was added to each of the wells, and MTT-formazane formed was allowed to dissolve by pipetting. The absorbance of the solutions was measured at 540 nm taking the no-cell-containing [solution as the background. The 50% growth inhibition concentration (ICs50) was calculated from ratio of the absorbances of the treated samples to the absorbance of the no-medicine-treated sample, and from the concentration of the test compound.

Experiment [2] deals with Colon-26 cells. Nature of the experiment: Antineoplastic activity, mice having Colon-26 cells transplanted subcutaneously. To be noted: Mus musculus, Colon 26, iv, 168 h, read-out: T/C (average tumor weight, dosed vs. solvent-dosed control). It is filed as in vivo, mouse (female, CDF1 strain). The procedure:
The test compound was dissolved in dimethylsulfoxide, and the solution was adequately diluted with 10% Emulfore EL620(produced by Rhone Poulenc Co.) to prepare the test compound solution. The antineoplastic activity was evaluated as below.
To the lateral region of a female mouse (CDF1 strain, 8 to 12 week age), 1×10^6 Colon-26 cells were transplanted subcutaneously. On the sixth day after the transplantation, the test medicine solution-was injected into the tail vein in a single dose. Seven to twelve mice were employed for the solvent-dosed control group, and five mice were employed for the dosed group. One week after the dosage, the tumor was cut out, and the weight thereof was measured. The antineoplastic effect was evaluated by the ratio (T/C) of the average tumor weight of the dosed group (T) to the average tumor weight of the solvent-dosed control group (C).

[3] abbreviates: P388 mouse leukemia cells, 72 h, 37° C., MTT.
[4] abbreviates: i.v. 0.5 mg/kg single dose on sixth day, tumor weighed one week after dosage.

Values after ≈ are worked out from the molar mass of the structure shown. Read-outs that look alike come from different tables or passages of the source.

For the compound `COC(=O)c1c(C(F)(F)F)[nH]c2c(OC(=O)N3CCN(C)CC3)cc3c(c12)[C@H](CCl)CN3C(=O)c1cc2cc(NC(=O)Nc3ccc4[nH]c(C(=O)N5C[C@@H](CCl)c6c5cc(OC(=O)N5CCN(C)CC5)c5[nH]c(C(F)(F)F)c(C(=O)OC)c65)cc4c3)ccc2[nH]1` [Example 109, (S,S)-3-3'-[Carbonylbis(imino-1H-indol-5,2-dicarbonyl)]bis-[1-chloromethyl-5-(4-methylpiperazin-1-ylcarbonyl)oxy-7-trifluoromethyl-1,2,3,6-tetrahydropyrrolo[3,2-e]indole-8-carboxylic acid methyl ester]], the IC50 in experiment [1] (Mus musculus, P388, 72 h) is 53 ng/mL (≈ 41 nM). In addition, in experiment [2], the response vs control in vivo at 0.25 mg/kg turned out to be 7%.

For the compound `COC(=O)c1c(C(F)(F)F)[nH]c2c(O)cc3c(c12)[C@H](CCl)CN3C(=O)c1cc2cc(NC(=O)c3cc4ccc(OC)cc4o3)ccc2[nH]1` [Example 77, Methyl (1S)-1-chloromethyl-5-hydroxy-3-[5-(6-methoxybenzofuran-2-ylcarbonyl)amino-1H-indol-2-ylcarbonyl]-7-trifluoromethyl-1,2,3,6-tetrahydropyrrolo[3,2-e]indole-8-carboxylate], the IC50 in experiment [1] (setting [3]) amounted to 0.23 ng/mL (≈ 0.338 nM). Also, the response vs control in vivo at 0.5 mg/kg in experiment [2] (setting [4]) was 6%. The corresponding values for `CCN(CC)c1ccc2cc(C(=O)Nc3ccc4[nH]c(C(=O)N5C[C@@H](CCl)c6c5cc(O)c5[nH]c(C(F)(F)F)c(C(=O)OC)c65)cc4c3)oc2c1` [Example 79, Methyl (1S)-1-chloromethyl-3-[5-(6-diethylaminobenzofuran-2-ylcarbonyl)amino-1H-indol-2-ylcarbonyl]-5-hydroxy-7-trifluoromethyl-1,2,3,6tetrahydropyrrolo[3,2-e]indole-8-carboxylate] are 2.1 ng/mL (≈ 2.91 nM) and 9%.

In the case of `COC(=O)c1c(C(F)(F)F)[nH]c2c(O)cc3c(c12)[C@H](CCl)CN3C(=O)c1cc2cc(NC(=O)c3cc4cc(OC)ccc4o3)ccc2[nH]1` [Example 76, Methyl (1S)-1-chloromethyl-5-hydroxy-3-[5-(5-methoxybenzofuran-2-ylcarbonyl)amino-1H-indol-2-ylcarbonyl]-7-trifluoromethyl-1,2,3,6-tetrahydropyrrolo[3,2-e]indole-8-carboxylate], the IC50 in experiment [1] (setting [3]) was 0.2 ng/mL (≈ 0.294 nM). Also, the response vs control in vivo at 0.5 mg/kg in experiment [2] (setting [4]) came out at 6%. Take `COC(=O)c1c(C(F)(F)F)[nH]c2c1[C@@]13C[C@@H]1CN(C(=O)/C=C/c1ccc(OC)cc1)C3=CC2=O` [Example 90, Methyl (7bR, 8aS)-2-[2-(4-methoxyphenyl)ethylene-1-ylcarbonyl)-6-trifluoromethyl-1,2,8,8a-tetrahydrocyclopropa[c]pyrrolo[3,2-e]indol-4 (5H)-one-7-carboxylate]: in experiment [1] (setting [3]), the IC50 is 0.9 ng/mL (≈ 1.91 nM). In addition, in experiment [2] (i.v. 1.0 mg/kg single dose on sixth day, tumor weighed one week after dosage), the response vs control in vivo at 1 mg/kg stood at 31%. Turning to `COC(=O)c1c(C(F)(F)F)[nH]c2c1[C@@]13C[C@@H]1CN(C(=O)c1cc4cccc(OC)c4o1)C3=CC2=O` [Example 86, Methyl (7bR, 8aS)-2-(7-methoxybenzofuran-2-ylcarbonyl)-6-trifluoromethyl-1,2,8,8a-tetrahydrocyclopropa[c]pyrrolo[3,2-e]indol-4 (5H)-one-7-carboxylate], the IC50 in experiment [1] (setting [3]) worked out at 1.1 ng/mL (≈ 2.26 nM). Also, in experiment [2] (setting [4]), the response vs control in vivo at 0.5 mg/kg was 40%.

For `COC(=O)c1c(C(F)(F)F)[nH]c2c(O)cc3c(c12)[C@H](CCl)CN3C(=O)c1cc2cc(NC(=O)c3cc4cccc(OC)c4o3)ccc2[nH]1` [Example 63, Methyl (1S)-1-chloromethyl-5-hydroxy-3-[5-[(7-methoxybenzofuran-2-ylcarbonyl)amino]-1H-indol-2-ylcarbonyl]-7-trifluoromethyl-1,2,3,6-tetrahydropyrrolo[3,2-e]indole-8-carboxylate], the IC50 in experiment [1] (setting [3]) stood at 0.55 ng/mL (≈ 0.808 nM). Also, the response vs control in vivo at 0.5 mg/kg in experiment [2] (setting [4]) was 4%. `COC(=O)c1c(C(F)(F)F)[nH]c2c(O)cc3c(c12)[C@H](CCl)CN3C(=O)c1cc2cc(NC(=O)Nc3ccc4[nH]c(C(=O)N5C[C@@H](CCl)c6c5cc(O)c5[nH]c(C(F)(F)F)c(C(=O)OC)c65)cc4c3)ccc2[nH]1` [Example 108, (S,S)-3-3'-[Carbonylbis(imino-1H-indol-5,2-dicarbonyl)]bis-[1-chloromethyl-5-hydroxy-7-trifluoromethyl-1,2,3,6-tetrahydropyrrolo[3,2-e]indole-8-carboxylic acid methyl ester]]: the IC50 in experiment [1] (setting [3]) was determined as 0.007 ng/mL (≈ 0.00673 nM). The response vs control in vivo at 0.0156 mg/kg in experiment [2] (i.v. 0.0156 mg/kg single dose on sixth day, tumor weighed one week after dosage) was found to be 6%. For `COC(=O)c1c(C(F)(F)F)[nH]c2c(OC(=O)N3CCN(C)CC3)cc3c(c12)[C@H](CCl)CN3C(=O)c1cc2cc(NC(=O)c3cc4c(cn3)[nH]c3ccccc34)ccc2[nH]1` [Example 98, Methyl (1S)-1-chloromethyl-5-(4-methylpiperazin-1-ylcarbonyl)oxy-3-[5-[(9H-pyrido[3,4-b]indol-3-ylcarbonyl)amino]-1H-indol-2-ylcarbonyl]-7-trifluoromethyl-1,2,3,6-tetrahydropyrrolo[3,2-e]indole-8-carboxylate], in experiment [1] (Mus musculus, P388, 72 h), the IC50 was determined as 5.7 ng/mL (≈ 6.89 nM). The response vs control in vivo at 0.5 mg/kg in experiment [2] was 29%.

For `COC(=O)c1c(C(F)(F)F)[nH]c2c(O)cc3c(c12)[C@H](CCl)CN3C(=O)c1cc2cc(NC(=O)c3cc4c(OC)cccc4o3)ccc2[nH]1` [Example 75, Methyl (1S)-1-chloromethyl-5-hydroxy-3-[5-(4-methoxybenzofuran-2-ylcarbonyl)amino-1H-indol-2-ylcarbonyl]-7-trifluoromethyl-1,2,3,6-tetrahydropyrrolo[3,2-e]indole-8-carboxylate], the IC50 in experiment [1] (setting [3]) came out at 0.74 ng/mL (≈ 1.09 nM). Besides, the response vs control in vivo at 0.5 mg/kg in experiment [2] (setting [4]) was found to be 17%.

As to `COC(=O)c1c(C(F)(F)F)[nH]c2c(OC(=O)N3CCN(C)CC3)cc3c(c12)[C@H](CCl)CN3C(=O)c1cc2cc(NC(=O)c3cc4ccccc4cn3)ccc2[nH]1` [Example 107, Methyl (1S)-1-chloromethyl-3-[5-[(isoquinolin-3-ylcarbonyl)amino]-1H-indol-2-ylcarbonyl]-5-(4-methylpiperazin-1-ylcarbonyl)oxy-7-trifluoromethyl-1,2,3,6-tetrahydropyrrolo[3,2-e]indole-8-carboxylate], the IC50 in experiment [1] (Mus musculus, P388, 72 h) is 4.6 ng/mL (≈ 5.84 nM). Further, the response vs control in vivo at 0.5 mg/kg in experiment [2] amounted to 7%. On to `COC(=O)c1c(C(F)(F)F)[nH]c2c(OC(=O)N3CCN(C)CC3)cc3c(c12)[C@H](CCl)CN3C(=O)c1cc2cc(NC(=O)c3cc4cccc(OC)c4o3)ccc2[nH]1` [Example 99, Methyl (1S)-1-chloromethyl-3-[5[(7-methoxybenzofuran-2-ylcarbonyl)amino]-1H-indol-2-ylcarbonyl]-5-(4-methylpiperazin-1-ylcarbonyl)oxy-7-trifluoromethyl-1,2,3,6-tetrahydropyrrolo[3,2-e]indole-8-carboxylate], for which the response vs control in vivo at 2 mg/kg in experiment [2] turned out to be 5%.

Turning to `COC(=O)c1c(C(F)(F)F)[nH]c2c(OC(=O)N3CCN(C)CC3)cc3c(c12)[C@H](CCl)CN3C(=O)c1cc2cc(NC(=O)c3cc4c(OC)c(OC)c(OC)cc4cn3)ccc2[nH]1` [Example 97], in experiment [1] (Mus musculus, P388, 72 h), the IC50 was 5.8 ng/mL (≈ 6.6 nM). The response vs control in vivo at 0.5 mg/kg in experiment [2] was determined as 11%.

On to `COC(=O)c1c(C(F)(F)F)[nH]c2c(O)cc3c(c12)[C@H](CCl)CN3C(=O)c1cc2cc(NC(=O)c3cc4cc(OC)c(OC)c(OC)c4o3)ccc2[nH]1` [Example 78, Methyl (1S)-1-chloromethyl-5-hydroxy.-7trifluoromethyl-3-[5-(5,6,7-trimethoxybenzofuran-2-ylcarbonyl)amino-1H-indol-2-ylcarbonyl]-1,2,3,6-tetrahydropyrrolo[3,2-e]indole-8-carboxylate], for which the IC50 in experiment [1] (setting [3]) stood at 0.33 ng/mL (≈ 0.445 nM). The response vs control in vivo at 0.125 mg/kg in experiment [2] (i.v. 0.125 mg/kg single dose on sixth day, tumor weighed one week after dosage) is 26%.

These data come from US5629430A, “Trifluoromethylpyrroloindolecarboxylic acid ester and process for production thereof” (Kyorin Pharmaceutical Co., Ltd., priority 1992, dated 1997).
